Measurements taken from US20210137941A1 (ZARODEX THERAPEUTICS LIMITED, priority 2018, published 2021).
“And” between values parts separate entries of the source, which are not always exact repeats. Identical values can stand only once. “Also recorded” adds a separate entry of the source. Like-named read-outs stand apart in the source and are kept apart here.

How the values were obtained:
[1] = test system: B cell subsets (class switched memory B cells, plasmablasts); details: for CSMB after stopping clozapine: one patient, 24 months after clozapine cessation (from 1.58%)
[2] = test system: bone marrow B cell subsets; assay: Wild type mouse study: bone marrow B cell immunophenotyping by flow cytometry; format: in vivo, C57BL/6 mice
[3] = test system: anti-collagen IgG1 and IgG2a; assay: CIA model: serum anti-collagen immunoglobulin by ELISA; format: in vivo, DBA/1 mice; details: FIG. 33
Procedure: (§1) All experiments were approved by the Clinical Medicine Animal Welfare and Ethical Review Body (AWERB) and by the UK Home Office.
(§2) At the end of the experimental period, mice were humanely euthanised and bled by cardiac puncture to obtain blood samples for serum separation, storage at −80° C. and subsequent measurement of specific anti-collagen immunoglobulin (IgG1 and IgG2a isotypes) by ELISA. In parallel, spleen and inguinal lymph nodes were harvested for evaluation of cellular composition across these compartments using multi-laser flow cytometric detection and analysis. Numbers of B cell subsets in spleen and lymph nodes were determined by FACS.
(§3) Data were analyzed by one-way ANOVA with Tukey's or Dunnett's multiple comparison test or two-way ANOVA with Tukey's multiple comparison test as appropriate. All calculations were made using GraphPad Prism software. A P value less than 0.05 was considered significant.

[4] = test system: circulating total IgG, IgA, IgM and pneumococcus IgG; assay: Second observational study (interim analysis): circulating immunoglobulins; format: in vivo, human; details: interim data
[5] = test system: T follicular helper cells (CD4+ PD1+ CXCR5+); assay: CIA model: T follicular helper cells in spleen and lymph node by FACS; format: in vivo, DBA/1 mice
Procedure: as §1, §2, §3

[6] = test system: B220+ B cells, plasma cells, germinal centre B cells; assay: CIA model: B cell subsets in spleen and lymph nodes by FACS; format: in vivo, DBA/1 mice
Procedure: as §1, §2, §3

[7] = test system: serum/plasma IgG, IgA, IgM; details: cited from earlier work
[8] = test system: circulating B cell subsets; assay: Second observational study (interim analysis): peripheral blood B cell subsets by FACS; format: in vivo, human; details: interim data
[9] = test system: Immunoglobulin levels (IgG, IgA and IgM); assay: Referred clozapine patients (Immunology clinic): serum immunoglobulins; format: in vivo, human
[10] = test system: collagen-induced arthritis (CIA); assay: Mouse collagen-induced arthritis (CIA) model: onset, incidence, clinical score, paw swelling; format: in vivo, DBA/1 mice
Procedure: Adult (age 13-15 weeks) DBA/1 male mice were purchased from Envigo (Horst, Netherlands). Mice were housed at a 21° C.±2° C. in individually ventilated cages with free access to food and water and a 12-h light/dark cycle (7 am/7 pm). Mice were acclimatised for 1 week on arrival prior to initiating experiments.
as §1
DBA/1 mice were immunised with bovine type II collagen in CFA and monitored daily for onset of arthritis. […] Controls received vehicle (saline) alone. Treatment of mice commenced in one experiment on day 1 after immunisation and in a second experiment on day 15 after immunisation. Clinical scores and paw-swelling were monitored for 10 days following onset of arthritis. A clinical scoring system was used as follows. Arthritis severity was scored by an experienced, non-blinded investigator as follows: 0=normal, 1=slight swelling and/or erythema, 2=pronounced swelling, 3=ankylosis. All four limbs were scored, giving a maximum possible score of 12 per animal.
as §3

[11] = test system: IgG to Haemophilus influenza B, Pneumococcus and Tetanus; details: human, in vivo
[12] = treatment-resistant schizophrenia; cited from earlier work
[13] = test system: specific antibody titres against Haemophilus influenzae, Tetanus and Pneumococcal capsular polysaccharide; parameters: species or system human; details: in vivo
[14] = test system: circulating immunoglobulins; assay: Wild type mouse study: circulating immunoglobulin profile by ELISA; format: in vivo, C57BL/6 mice; details: FIG. 24
[15] = outpatients on clozapine at least five years (Lozano et al., 2016)
[16] = six weeks clozapine treatment (Hinze-Selch et al., 1998)
[17] = 13 referred patients on clozapine
[18] = 13 referred patients, clozapine 200-750 mg, duration >4 to 21 years (two had stopped), one line per patient

CN1CCN(C2=Nc3cc(Cl)ccc3Nc3ccccc32)CC1 [Clozapine, clozapine]
marginal zone B cell numbers vs healthy control ([1]; FIG. 3B): no significant difference
total B cell numbers vs CVID and healthy controls ([1]; FIG. 3B): similar
CSMB (6.5-29.1%), individual referred patients ([1]; class switched memory B cells as % of CD19+ cells, one line per patient, listed as clozapine): 1.58%
overall lymphopenia / B cell lymphopenia ([1]; human, in vivo): no severe overall lymphopenia or B cell lymphopenia
CSMB after stopping clozapine [1]: CSMB rose to 2.77%
CSMB after stopping clozapine ([1]; listed as clozapine): 2.77%
mean percentage of CSMB, referred patients ([1]; reference range 6.5-29.1%, p<0.0001 vs healthy controls, FIG. 3A): 1.87%
pro-B cell fraction in bone marrow ([2]; 10 mg/kg IP, 21 days, FIG. 18): without any change
proportion of pre-pro B cells in bone marrow ([2]; 10 mg/kg IP, 21 days, FIG. 18): significant increase
reduction in the percentage of long-lived plasma cells in the bone marrow compared to control ([2]; 5 and 10 mg/kg IP, 21 days, significant, FIG. 20): ~30%
percentage of immature B cells in bone marrow ([2]; IP 21 days, FIG. 19): reduction
overall B cells in the bone marrow ([2]; any dose (2.5, 5, 10 mg/kg IP, 21 days), FIG. 18): No overall reduction
pre-B cells in bone marrow ([2]; dose-dependent, significant vs control from 2.5 mg/kg, IP 21 days, FIG. 19): reduction
percentage of proliferating pre-B cells in bone marrow ([2]; reaching significance for the 5 mg/kg dose, FIG. 19): diminished
serum anti-type II collagen IgG1 reduction ([3]; 10 mg/kg from day 15): reaching statistical significance
serum anti-type II collagen IgG2a ([3]; 5 or 10 mg/kg from day 1 or day 15, single time point): no significant impact
serum anti-type II collagen IgG1 ([3]; across all doses tested): nominal reductions
levels of circulating total IgG, IgA and IgM vs clozapine naive control ([4]; FIG. 6A-C): Significantly reduced levels
IgG antibodies against pneumococcus vs control ([4]; FIG. 7): trend to lower
proportions of CD4+PD1+CXCR5+ T follicular helper cells in lymph node or spleen ([5]; 5 or 10 mg/kg from day 1 or day 15, FIG. 34): did not significantly affect
expression of PD-1 (MFI) in lymph node T follicular helper cells ([5]; all doses and time points, FIG. 35): Reduced expression
CXCR5 expression (MFI) on T follicular helper cells ([5]; dosed from day 1, lymph node and spleen, FIG. 36): significant reductions
expression of CCR7 on germinal centre resident T follicular helper cells ([5]; lymph node and spleen, FIG. 37): reduction in expression
proportion of B220+ B cells in spleen ([6]; 10 mg/kg from day 1, FIG. 29): significantly reduced
proportion of plasma cells in spleen ([6]; 10 mg/kg given on day 1, FIG. 30): significant reduction
plasma cell numbers in lymph node ([6]; FIG. 30): no significant effect
level of GL7 expression on follicular B cells in lymph node ([6]; all clozapine treatment groups vs vehicle, FIG. 32): significantly decreased
percentage of B220+ B cells in lymph nodes ([6]; all doses and time points (5 or 10 mg/kg from day 1 or day 15), FIG. 29): significantly lower percentage
lymph node follicular B cells (B220+IgD-Fas+GL7hi) ([6]; all doses/both time points, FIG. 31): Strikingly significant reductions
IgA, IgG, absolute neutrophil count and white blood cell count vs control group [7, 15]: no differences were found
mean plasma levels of IgM vs control group [7, 15]: overall decrease
IgA or IgM concentrations [7, 16]: no significant effect
serum concentrations of IgG [7, 16]: significant increases
overall CD19+ B cell numbers vs control ([8]; FIG. 8A-B): not significantly different
naive (CD19+CD27-) B cells as a proportion of total CD19+ B cells ([8]; FIG. 9A-C): Small increase
overall memory B cell pool ([8]; FIG. 10A-C): without perturbation
IgM hi IgD lo memory B cell subpopulation ([8]; FIG. 12A-C): without perturbation
circulating levels of marginal zone B cells ([8]; FIG. 14A-C): No significant difference
class-switched memory B cells (CD27+ IgM- IgD- as % B) ([8]; P=0.06 vs control, FIG. 11A-C): Strong trends to a specific reduction
levels of plasmablasts ([8]; P=0.07 vs control clozapine naive, FIG. 15A-C): Strong trends to reduction
mean IgA, referred patients [9, 17]: 0.34 g/L
mean IgG, referred patients [9, 17]: 3.6 g/L
mean IgM, referred patients [9, 17]: 0.21 g/L
serum IgA, individual referred patients [9, 18]: IgA 0.54 g/L and <0.22 g/L (6×) and IgA 0.49 g/L and IgA 0.38 g/L and undetect- and IgA 0.26 g/L and IgA 0.81 g/L and IgA 0.63 g/L
serum IgG, individual referred patients [9, 18]: IgG 4.8 g/L and <1.34 g/L (2×) and IgG 5.24 g/L and IgG 2.68 g/L and IgG 2.98 g/L and IgG 1.2 g/L and IgG 3.3 g/L and IgG 2.38 g/L and IgG 4.24 g/L and IgG 6.65 g/L and IgG 5.61 g/L and IgG 4.79 g/L
serum IgM, individual referred patients [9, 18]: IgM 0.3 g/L and <0.17 g/L (7×) and 0.41 g/L (2×) and 0.23 g/L and 0.07 g/L and 0.18 g/L
serum IgG, individual referred patients ([9]; 13 referred patients, clozapine 200-750 mg, duration >4 to 21 years (two had stopped), one line per patient, listed as clozapine): 3.3 g/L
serum IgG post-discontinuation of clozapine ([9]; FIG. 5, gradual recovery over 3 years): 5.95 g/L
serum IgG at discontinuation of clozapine ([9]; FIG. 5, start of recovery): 3.5 g/L
IgA and IgM following cessation of clozapine ([9]; FIG. 5 / one patient over 24 months): without clear improvement; also recorded: remained low
serum IgM after stopping clozapine ([9]; one patient, 24 months after clozapine cessation): 0.49 after 24 months
serum IgG after stopping clozapine, intermediate value ([9]; one patient, within 24 months after cessation): 4.8 g/L
swelling of the first affected paw ([10]; 10 mg/kg from day 1, FIG. 27): reduced swelling of the first affected paw
onset of arthritis post-immunisation ([10]; 5 or 10 mg/kg IP daily from day 1 or day 15, FIG. 25, 26): significantly effective
incidence of CIA ([10]; FIG. 26): reduces the incidence
onset of arthritis, treatment from day 1 ([10]; both doses (5, 10 mg/kg) from day 1, FIG. 25, 26): extremely effective
overall clinical score ([10]; both doses, administered from day 1, FIG. 27): reduced overall clinical score
total number of affected paws compared to vehicle control ([10]; significant with dosing at D1, FIG. 28): reduced the total number of affected paws
individuals failing to develop a pneumococcal IgG response above 50 mg/L [11]: 73%
individuals failing to exceed 0.1 IU/mL post-vaccination Tetanus-IgG level [11]: 1/12
individuals failing to mount a Haemophilus-IgG response of at least 1 mcg/ml [11]: 42%
patients with IgG to Haemophilus influenza B (HiB) <1 mcg/ml [11]: 75%
patients with Pneumococcus-IgG <50 mg/L [11]: 94%
patients with Tetanus-IgG <0.1 IU/mL [11]: 38%
patients with impaired responses to vaccination [11]: 10/11
vaccine response, individual referred patients [11]: Failure to responds to; also recorded: Non-durable
previously treatment refractive patients in whom effective [12]: approximately 60%
% of patients with IgG-Haemophilus B <1.0 mcg/ml (below protective level) [13]: 51% and 51.2% and 51.1% and 49.4% and 50.9%
% of patients with IgG-Pneumococcus <35 mg/L [13]: 39.0% and 38.3% and 37.9% and 45.6%
% of patients with IgG-Pneumococcus <50 mg/L (below protective level) [13]: 52.1% and 50.6% and 54.4%
% of patients with IgG-Tetanus <0.1 IU/ml (below protective level) [13]: 10.6% and 11.5% and 12.3%
IgM-Pneumococcus [13]: 58.5 U/L and 59.8 U/L and 60.4 U/L and 61.6 U/L
Pneumococcal IgA level [13]: 31 U/ml
Pneumococcal IgM level [13]: 58.5 U/ml
pneumococcal IgA level [13]: 31.0 U/L
other circulating immunoglobulin isotype classes [14]: No other isotype classes were affected
circulating IgA levels compared to control ([14]; clozapine 5 and 10 mg/kg, haloperidol 1 mg/kg, IP 21 days): reduction
